Measured values published in the supplement of paper PMC5662764.
± gives the standard deviation of the averaged measurements.

What was measured:
Test in all cases: normalised growth rate inhibition (GR value) relative to DMSO control (GR (1 = untreated growth, 0 = cytostasis, <0 = cytotoxic)); higher = less growth inhibition
Details in all cases: 72 h
HS578T = tested on: HS578T
Method: (§1)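 Breast cancer cell lines (BT-20, Hs 578T, MCF 10A, MCF7, MDA-MB-231, SK-BR-3) were plated in 384-well plates and treated 24 h later with drugs at six concentrations (0.04-10 µM). Viable cells were counted by Hoechst/dead-cell-stain imaging at 0 and 72 h. Counts were normalised to DMSO controls on the same plate to give the relative cell count and the growth-rate inhibition (GR) value; technical plate triplicates were averaged for each biological replicate.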

SKBR3 = tested on: SKBR3
Method: as §1

MCF10A = tested on: MCF10A
Method: as §1

BT20 = tested on: BT20
Method: as §1

MDAMB231 = tested on: MDAMB231
Method: as §1

MCF7 = tested on: MCF7
Method: as §1

Structure (SMILES)	normalised growth rate inhibition (HS578T; 0.04 µM)	normalised growth rate inhibition (HS578T; 0.12 µM)	normalised growth rate inhibition (HS578T; 0.37 µM)	normalised growth rate inhibition (HS578T; 1.11 µM)	normalised growth rate inhibition (HS578T; 3.33 µM)	normalised growth rate inhibition (HS578T; 10 µM)	normalised growth rate inhibition (SKBR3; 0.04 µM)	normalised growth rate inhibition (SKBR3; 0.12 µM)	normalised growth rate inhibition (SKBR3; 0.37 µM)	normalised growth rate inhibition (SKBR3; 1.11 µM)	normalised growth rate inhibition (SKBR3; 3.33 µM)	normalised growth rate inhibition (SKBR3; 10 µM)	normalised growth rate inhibition (MCF10A; 0.04 µM)	normalised growth rate inhibition (MCF10A; 0.12 µM)	normalised growth rate inhibition (MCF10A; 0.37 µM)	normalised growth rate inhibition (MCF10A; 1.11 µM)	normalised growth rate inhibition (MCF10A; 3.33 µM)	normalised growth rate inhibition (MCF10A; 10 µM)	normalised growth rate inhibition (BT20; 0.04 µM)	normalised growth rate inhibition (BT20; 0.12 µM)	normalised growth rate inhibition (BT20; 0.37 µM)	normalised growth rate inhibition (BT20; 1.11 µM)	normalised growth rate inhibition (BT20; 3.33 µM)	normalised growth rate inhibition (BT20; 10 µM)	normalised growth rate inhibition (MDAMB231; 0.04 µM)	normalised growth rate inhibition (MDAMB231; 0.12 µM)	normalised growth rate inhibition (MDAMB231; 0.37 µM)	normalised growth rate inhibition (MDAMB231; 1.11 µM)	normalised growth rate inhibition (MDAMB231; 3.33 µM)	normalised growth rate inhibition (MDAMB231; 10 µM)	normalised growth rate inhibition (MCF7; 0.04 µM)	normalised growth rate inhibition (MCF7; 0.12 µM)	normalised growth rate inhibition (MCF7; 0.37 µM)	normalised growth rate inhibition (MCF7; 1.11 µM)	normalised growth rate inhibition (MCF7; 3.33 µM)	normalised growth rate inhibition (MCF7; 10 µM)
CCCS(=O)(=O)Nc1ccc(F)c(C(=O)c2c[nH]c3ncc(Cl)cc23)c1F [PLX-4720]	1.03 ± 0.033	1.09 ± 0.044	1.12 ± 0.079	1.12 ± 0.11	1.04 ± 0.086	0.781 ± 0.092	0.994 ± 0.015	0.999 ± 0.026	1.04 ± 0.15	1.06 ± 0.06	0.61 ± 0.1	0.254 ± 0.26	0.998 ± 0.019	0.99 ± 0.039	0.982 ± 0.054	1 ± 0.068	1 ± 0.066	0.896 ± 0.056	1.01 ± 0.032	0.988 ± 0.027	0.959 ± 0.051	0.882 ± 0.16	0.685 ± 0.1	0.409 ± 0.05	0.989 ± 0.06	1.01 ± 0.054	1 ± 0.032	0.929 ± 0.041	0.822 ± 0.073	0.63 ± 0.21	1.04 ± 0.078	0.944 ± 0.028	1.02 ± 0.049	0.991 ± 0.02	0.851 ± 0.097	0.5 ± 0.16
C=CC(=O)Nc1cc(-n2c(=O)ccc3cnc4ccc(-c5cn[nH]c5)cc4c32)ccc1C [QL-X-138]	0.841 ± 0.034	0.76 ± 0.066	0.639 ± 0.024	0.501 ± 0.018	0.379 ± 0.061	-0.0527 ± 0.082	0.463 ± 0.16	0.413 ± 0.11	0.233 ± 0.13	0.163 ± 0.09	0.0588 ± 0.1	-0.231 ± 0.21	1.01 ± 0.063	0.981 ± 0.074	0.887 ± 0.15	0.791 ± 0.19	0.505 ± 0.29	-0.112 ± 0.031	0.727 ± 0.052	0.726 ± 0.046	0.631 ± 0.11	0.535 ± 0.17	0.381 ± 0.18	-0.222 ± 0.053	0.824 ± 0.13	0.834 ± 0.062	0.768 ± 0.059	0.672 ± 0.12	0.48 ± 0.13	-0.135 ± 0.11	0.496 ± 0.22	0.41 ± 0.2	0.31 ± 0.098	0.205 ± 0.094	0.145 ± 0.061	-0.0977 ± 0.021
C=CC(=O)N1CCc2ccc(-n3c(=O)ccc4cnc5ccc(-c6cnn(C)c6)cc5c43)cc21 [QL-XII-47]	0.895 ± 0.091	0.854 ± 0.11	0.713 ± 0.15	0.438 ± 0.24	0.153 ± 0.14	-0.127 ± 0.12	0.516 ± 0.042	0.35 ± 0.12	0.0964 ± 0.17	-0.108 ± 0.14	-0.26 ± 0.18	-0.3 ± 0.16	0.969 ± 0.021	0.953 ± 0.024	0.867 ± 0.11	0.683 ± 0.26	0.428 ± 0.32	-0.127 ± 0.14	0.669 ± 0.29	0.618 ± 0.31	0.351 ± 0.28	0.0671 ± 0.23	-0.135 ± 0.077	-0.259 ± 0.091	0.659 ± 0.12	0.541 ± 0.14	0.337 ± 0.15	0.109 ± 0.14	-0.0169 ± 0.082	-0.128 ± 0.12	0.57 ± 0.16	0.35 ± 0.25	0.0387 ± 0.084	-0.0941 ± 0.045	-0.109 ± 0.017	-0.188 ± 0.12
Cc1cc(C(C)Nc2ccccc2)c2nc(N3CCOCC3)cc(=O)n2c1 (stereo not drawn) [TGX-221]	0.9256 ± 0.0041	0.902 ± 0.044	0.91 ± 0.02	0.891 ± 0.029	0.597 ± 0.28	0.698 ± 0.093	0.681 ± 0.072	0.789 ± 0.049	0.907 ± 0.034	0.963 ± 0.036	0.961 ± 0.023	0.888 ± 0.03	0.968 ± 0.03	0.972 ± 0.039	0.971 ± 0.027	0.964 ± 0.033	0.591 ± 0.38	0.957 ± 0.08	0.914 ± 0.05	0.954 ± 0.032	1.01 ± 0.021	1.02 ± 0.052	1.06 ± 0.054	1.05 ± 0.026	0.779 ± 0.087	0.816 ± 0.083	0.826 ± 0.086	0.868 ± 0.042	0.691 ± 0.19	0.868 ± 0.03	0.82 ± 0.073	0.848 ± 0.018	0.96 ± 0.013	0.98 ± 0.034	0.79 ± 0.15	0.822 ± 0.076
Nc1cccc(-c2cc3c(Oc4cccc(O)c4)ncnc3[nH]2)c1 [TWS-119]	1.02 ± 0.014	0.9855 ± 0.0042	0.978 ± 0.011	0.8808 ± 0.0081	0.707 ± 0.057	-0.081 ± 0.15	1.09 ± 0.077	0.989 ± 0.074	1.06 ± 0.044	1.02 ± 0.043	0.48 ± 0.095	-0.212 ± 0.26	1.02 ± 0.013	1.01 ± 0.011	1.02 ± 0.0082	1.02 ± 0.024	0.912 ± 0.11	0.0326 ± 0.084	1.02 ± 0.034	0.994 ± 0.056	0.971 ± 0.055	0.885 ± 0.11	0.696 ± 0.096	0.0129 ± 0.081	0.975 ± 0.056	0.961 ± 0.07	0.929 ± 0.084	0.785 ± 0.056	0.619 ± 0.021	0.0363 ± 0.044	1.06 ± 0.061	0.984 ± 0.053	0.991 ± 0.071	0.963 ± 0.079	0.616 ± 0.079	-0.165 ± 0.1
C=CC(=O)Nc1cccc(Nc2nc(NC3CCC(N(C)C)CC3)nc3c2ncn3C(C)C)c1 (stereo not drawn) [WZ-3105]	-0.121 ± 0.089	-0.138 ± 0.075	-0.127 ± 0.097	-0.135 ± 0.11	-0.147 ± 0.1	-0.143 ± 0.14	-0.298 ± 0.15	-0.287 ± 0.18	-0.269 ± 0.18	-0.273 ± 0.18	-0.266 ± 0.15	-0.227 ± 0.19	0.523 ± 0.12	0.188 ± 0.13	-0.101 ± 0.14	-0.224 ± 0.24	-0.245 ± 0.25	-0.269 ± 0.24	0.223 ± 0.13	0.0547 ± 0.14	-0.0538 ± 0.17	-0.207 ± 0.19	-0.253 ± 0.18	-0.328 ± 0.19	-0.23 ± 0.13	-0.232 ± 0.15	-0.235 ± 0.16	-0.237 ± 0.16	-0.232 ± 0.12	-0.132 ± 0.12	-0.317 ± 0.065	-0.303 ± 0.097	-0.28 ± 0.11	-0.254 ± 0.091	-0.27 ± 0.062	-0.296 ± 0.05
COc1cc(C(=O)N2CCC(N3CCN(C)CC3)CC2)ccc1Nc1ncc2c(n1)N(C)c1ccccc1C(=O)N2C [XMD-1150]	0.964 ± 0.035	0.913 ± 0.051	0.815 ± 0.034	0.66 ± 0.0096	0.411 ± 0.039	-0.053 ± 0.089	0.677 ± 0.17	0.669 ± 0.12	0.609 ± 0.12	0.514 ± 0.16	0.348 ± 0.18	0.0641 ± 0.18	0.973 ± 0.013	0.937 ± 0.021	0.841 ± 0.036	0.665 ± 0.078	0.384 ± 0.12	0.123 ± 0.052	0.885 ± 0.11	0.85 ± 0.16	0.803 ± 0.16	0.722 ± 0.17	0.551 ± 0.12	0.238 ± 0.15	0.891 ± 0.054	0.818 ± 0.088	0.567 ± 0.12	0.353 ± 0.077	0.189 ± 0.029	0.0699 ± 0.13	0.852 ± 0.021	0.784 ± 0.014	0.599 ± 0.018	0.365 ± 0.034	0.201 ± 0.012	0.0333 ± 0.0087
FC(F)c1nc2ccccc2n1-c1nc(N2CCOCC2)nc(N2CCOCC2)n1 [ZSTK-474]	0.806 ± 0.017	0.663 ± 0.032	0.522 ± 0.088	0.394 ± 0.12	0.289 ± 0.1	0.148 ± 0.11	0.783 ± 0.087	0.46 ± 0.06	0.161 ± 0.1	0.0252 ± 0.12	-0.0251 ± 0.15	-0.031 ± 0.13	0.954 ± 0.065	0.842 ± 0.12	0.698 ± 0.16	0.472 ± 0.083	0.296 ± 0.049	0.179 ± 0.069	0.971 ± 0.029	0.855 ± 0.16	0.615 ± 0.27	0.211 ± 0.17	0.0764 ± 0.14	-0.0662 ± 0.025	0.881 ± 0.062	0.828 ± 0.055	0.728 ± 0.025	0.646 ± 0.061	0.511 ± 0.077	0.386 ± 0.11	0.664 ± 0.2	0.37 ± 0.18	0.138 ± 0.048	0.0423 ± 0.065	0.00162 ± 0.071	-0.0168 ± 0.11
